Test results: patent US6806230B1, “Pyrimidine derivatives and herbicides containing them” (Kumiai Chemical Industry Co., Ltd., priority 1999, dated 2004)

Assays:
Type in all cases: in vivo
rice (Or) = experiment: Test Example 4: selectivity for a crop plant by flooded paddy field treatment; parameters: scale not given here; conditions: rice transplanted at second leaf stage, dose 25 g active ingredient per 10 ares, examined on the 21st day after treatment
In short: (§1)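 Scores reflect visual herbicidal effect, graded on a standard scale 21 days after water-surface treatment. The product, a wettable powder diluted with water, went on dropwise at 25 g a.i. per 10 ares one day after flooding to 3 cm. Weeds grew from sown seed and rice was transplanted at second-leaf stage.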

barnyard grass (Eo) [1] = experiment: as above; parameters: scale not given here; conditions: dose 25 g active ingredient per 10 ares, examined on the 21st day after treatment
In short: as §1

monochoria (Mo) [2] = experiment: as above; parameters: scale not given here; conditions: dose 25 g active ingredient per 10 ares, examined on the 21st day after treatment
In short: as §1

green foxtail (Se) = experiment: Test Example 2: herbicidal effects by upland soil treatment; conditions: dose 100 g active ingredient per 10 ares, examined on the 21st day after treatment, standards of Table 44;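 note: 0-5 growth inhibition grade; 5 = over 90%; 4 = 70-90%; 3 = 50-70%; 2 = 30-50%; 1 = 10-30%; 0 = under 10%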
In short: (§2)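 Pre-emergence test: barnyard grass and green foxtail sown in upland soil, then soil surface sprayed with wettable-powder formulation at 100 g active ingredient per 10 ares (100 l per 10 ares). Grown in greenhouse; herbicidal effect scored on a rating scale 21 days after treatment.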

barnyard grass (Ec) [3] = experiment: as above; parameters: scale not given here; conditions: dose 100 g active ingredient per 10 ares, examined on the 21st day after treatment, standards of Table 44
In short: as §2

monochoria (Mo) [4] = experiment: Test Example 1: herbicidal effects by flooded paddy field treatment; conditions: dose 100 gai/10a, examined on 21st day after treatment, index 0-5 per Table 44;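 note: 0-5 growth inhibition grade; 5 = over 90%; 4 = 70-90%; 3 = 50-70%; 2 = 30-50%; 1 = 10-30%; 0 = under 10%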
In short: (§3)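 Herbicidal effect is a graded score assigned 21 days after treatment. Application was one day after sowing into flooded (3 cm) puddled paddy soil, with diluted wettable powder dropped onto the water at 100 g active ingredient per 10 ares. Plants were kept in a greenhouse.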

wheat (Tr) = experiment: Test Example 5: selectivity for a crop plant by soil treatment in upland field; parameters: scale not given here; conditions: dose 25 gai/10a, 21st day after treatment, index per Table 44
Description: (§4) In a 80 cm^2 plastic pot, upland soil was filled, and seeds of barnyard grass (Ec), green foxtail (Se), soybean (G1), wheat (Tr) and corn (Ze) were sown and covered with soil. A wettable powder prepared in accordance with Formulation Example 1 was diluted with water and uniformly applied to the soil surface by a small size spray at a rate of 100 l per 10 ares so that the dose of the active ingredient would be 25 g per 10 ares. Thereafter, cultivation was carried out in a green house, and on the 21st day after the treatment, the herbicidal effects were examined in accordance with the standards of Table 44.

corn (Ze) = experiment: as above; parameters: scale not given here; conditions: dose 25 gai/10a, 21st day after treatment, index per Table 44
Description: as §4

soybean (G1) = experiment: as above; parameters: scale not given here; conditions: dose 25 gai/10a, 21st day after treatment, index per Table 44
Description: as §4

barnyard grass (Ec) [5] = experiment: as above; parameters: scale not given here; conditions: dose 25 gai/10a, 21st day after treatment, index per Table 44
Description: as §4

barnyard grass (Eo) [6] = experiment: Test Example 1: herbicidal effects by flooded paddy field treatment; conditions: dose 100 gai/10a, examined on 21st day after treatment, index 0-5 per Table 44;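 note: 0-5 growth inhibition grade; 5 = over 90%; 4 = 70-90%; 3 = 50-70%; 2 = 30-50%; 1 = 10-30%; 0 = under 10%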
In short: as §3

SMILES: CC(C)Oc1ccc(CC(=O)N(C)C(c2cncnc2C(F)(F)F)C(C)C)cc1 (racemic) [Compound 1-97]
- Or (effect on crop plant rice, index) (rice (Or)): 0
- Eo (herbicidal effects, index) (barnyard grass (Eo) [1]): 5
- Mo (herbicidal effects, index) (monochoria (Mo) [2]): 5
- herbicidal effects, Se (green foxtail) (green foxtail (Se)): 5
- herbicidal effects, Ec (barnyard grass) (barnyard grass (Ec) [3]): 5
- Herbicidal effect index, Mo (monochoria (Mo) [4]): 5
- Tr (herbicidal effect index on crop) (wheat (Tr)): 1
- Ze (herbicidal effect index on crop) (corn (Ze)): 0
- Gl (herbicidal effect index on crop) (soybean (G1)): 3
- Ec (herbicidal effect index) (barnyard grass (Ec) [5]): 4
- Herbicidal effect index, Eo (barnyard grass (Eo) [6]): 5

SMILES: COCc1ccc(CC(=O)N(C)C(c2cncnc2C(F)(F)F)C(C)C)cc1 (racemic) [Compound 1-76]
- Or (effect on crop plant rice, index) (rice (Or)): 0
- Eo (herbicidal effects, index) (barnyard grass (Eo) [1]): 5
- Mo (herbicidal effects, index) (monochoria (Mo) [2]): 5
- herbicidal effects, Se (green foxtail) (green foxtail (Se)): 5
- herbicidal effects, Ec (barnyard grass) (barnyard grass (Ec) [3]): 5
- Herbicidal effect index, Mo (monochoria (Mo) [4]): 5
- Tr (herbicidal effect index on crop) (wheat (Tr)): 2
- Ze (herbicidal effect index on crop) (corn (Ze)): 2
- Gl (herbicidal effect index on crop) (soybean (G1)): 0
- Ec (herbicidal effect index) (barnyard grass (Ec) [5]): 4
- Herbicidal effect index, Eo (barnyard grass (Eo) [6]): 5

SMILES: CC(C)C(c1cncnc1C(F)(F)F)N(C)C(=O)Cc1ccc(Cl)c(Cl)c1 (racemic) [Compound 1-45]
- Or (effect on crop plant rice, index) (rice (Or)): 0
- Eo (herbicidal effects, index) (barnyard grass (Eo) [1]): 5
- Mo (herbicidal effects, index) (monochoria (Mo) [2]): 5
- herbicidal effects, Se (green foxtail) (green foxtail (Se)): 5
- herbicidal effects, Ec (barnyard grass) (barnyard grass (Ec) [3]): 5
- Herbicidal effect index, Mo (monochoria (Mo) [4]): 5
- Tr (herbicidal effect index on crop) (wheat (Tr)): 2
- Ze (herbicidal effect index on crop) (corn (Ze)): 0
- Gl (herbicidal effect index on crop) (soybean (G1)): 0
- Ec (herbicidal effect index) (barnyard grass (Ec) [5]): 4
- Herbicidal effect index, Eo (barnyard grass (Eo) [6]): 5

SMILES: Cc1cccc(CC(=O)N(C)C(c2cncnc2C(F)(F)F)C(C)C)c1 (racemic) [Compound 1-51]
- Or (effect on crop plant rice, index) (rice (Or)): 1
- Eo (herbicidal effects, index) (barnyard grass (Eo) [1]): 5
- Mo (herbicidal effects, index) (monochoria (Mo) [2]): 5
- herbicidal effects, Se (green foxtail) (green foxtail (Se)): 5
- herbicidal effects, Ec (barnyard grass) (barnyard grass (Ec) [3]): 5
- Herbicidal effect index, Mo (monochoria (Mo) [4]): 5
- Tr (herbicidal effect index on crop) (wheat (Tr)): 1
- Ze (herbicidal effect index on crop) (corn (Ze)): 0
- Gl (herbicidal effect index on crop) (soybean (G1)): 0
- Ec (herbicidal effect index) (barnyard grass (Ec) [5]): 5
- Herbicidal effect index, Eo (barnyard grass (Eo) [6]): 5

SMILES: CC(C(=O)N(C)C(c1cncnc1C(F)(F)F)C(C)C)c1ccc(Cl)cc1 (mixture of isomers) [Compound 1-71]
- herbicidal effects, Se (green foxtail) (green foxtail (Se)): 5
- herbicidal effects, Ec (barnyard grass) (barnyard grass (Ec) [3]): 5
- Herbicidal effect index, Mo (monochoria (Mo) [4]): 5
- Tr (herbicidal effect index on crop) (wheat (Tr)): 3
- Ze (herbicidal effect index on crop) (corn (Ze)): 0
- Ec (herbicidal effect index) (barnyard grass (Ec) [5]): 5
- Herbicidal effect index, Eo (barnyard grass (Eo) [6]): 5

SMILES: CC(C)c1ccc(CC(=O)N(C)C(c2cncnc2C(F)(F)F)C(C)C)cc1 (racemic) [Compound 1-68]
- herbicidal effects, Se (green foxtail) (green foxtail (Se)): 5
- herbicidal effects, Ec (barnyard grass) (barnyard grass (Ec) [3]): 5
- Herbicidal effect index, Mo (monochoria (Mo) [4]): 5
- Tr (herbicidal effect index on crop) (wheat (Tr)): 2
- Ze (herbicidal effect index on crop) (corn (Ze)): 2
- Gl (herbicidal effect index on crop) (soybean (G1)): 0
- Ec (herbicidal effect index) (barnyard grass (Ec) [5]): 4
- Herbicidal effect index, Eo (barnyard grass (Eo) [6]): 5

SMILES: CC(C)C(c1cncnc1C(F)(F)F)N(C)C(=O)CCc1ccccc1 (racemic) [Compound 1-77]
- herbicidal effects, Se (green foxtail) (green foxtail (Se)): 5
- herbicidal effects, Ec (barnyard grass) (barnyard grass (Ec) [3]): 5
- Tr (herbicidal effect index on crop) (wheat (Tr)): 3
- Ze (herbicidal effect index on crop) (corn (Ze)): 2
- Gl (herbicidal effect index on crop) (soybean (G1)): 1
- Ec (herbicidal effect index) (barnyard grass (Ec) [5]): 5

SMILES: Cc1ccc(CC(=O)N(C)C(c2cncnc2C(F)(F)F)C(C)C)cc1 (racemic) [Compound 1-23]
- Or (effect on crop plant rice, index) (rice (Or)): 1
- Eo (herbicidal effects, index) (barnyard grass (Eo) [1]): 5
- Mo (herbicidal effects, index) (monochoria (Mo) [2]): 5
- herbicidal effects, Se (green foxtail) (green foxtail (Se)): 5
- herbicidal effects, Ec (barnyard grass) (barnyard grass (Ec) [3]): 5
- Herbicidal effect index, Mo (monochoria (Mo) [4]): 5
- Tr (herbicidal effect index on crop) (wheat (Tr)): 2
- Ze (herbicidal effect index on crop) (corn (Ze)): 1
- Ec (herbicidal effect index) (barnyard grass (Ec) [5]): 5
- Herbicidal effect index, Eo (barnyard grass (Eo) [6]): 5

SMILES: CC(C)C(c1cncnc1C(F)(F)F)N(C)C(=O)COc1ccc(Cl)cc1 (racemic) [Compound 1-65]
- herbicidal effects, Se (green foxtail) (green foxtail (Se)): 5
- herbicidal effects, Ec (barnyard grass) (barnyard grass (Ec) [3]): 5
- Herbicidal effect index, Mo (monochoria (Mo) [4]): 5
- Tr (herbicidal effect index on crop) (wheat (Tr)): 0
- Ze (herbicidal effect index on crop) (corn (Ze)): 0
- Gl (herbicidal effect index on crop) (soybean (G1)): 0
- Ec (herbicidal effect index) (barnyard grass (Ec) [5]): 5
- Herbicidal effect index, Eo (barnyard grass (Eo) [6]): 5

SMILES: CC(C)C(c1cncnc1C(F)(F)F)N(C)C(=O)COc1ccccc1 (racemic) [Compound 1-64]
- herbicidal effects, Se (green foxtail) (green foxtail (Se)): 5
- herbicidal effects, Ec (barnyard grass) (barnyard grass (Ec) [3]): 5
- Herbicidal effect index, Mo (monochoria (Mo) [4]): 5
- Tr (herbicidal effect index on crop) (wheat (Tr)): 3
- Ze (herbicidal effect index on crop) (corn (Ze)): 0
- Gl (herbicidal effect index on crop) (soybean (G1)): 2
- Ec (herbicidal effect index) (barnyard grass (Ec) [5]): 4
- Herbicidal effect index, Eo (barnyard grass (Eo) [6]): 5

SMILES: CC(C)C(c1cncnc1C(F)(F)F)N(C)C(=O)Cc1cccc(Br)c1 (racemic) [Compound 1-70]
- herbicidal effects, Se (green foxtail) (green foxtail (Se)): 5
- herbicidal effects, Ec (barnyard grass) (barnyard grass (Ec) [3]): 5
- Herbicidal effect index, Mo (monochoria (Mo) [4]): 5
- Tr (herbicidal effect index on crop) (wheat (Tr)): 4
- Ze (herbicidal effect index on crop) (corn (Ze)): 1
- Gl (herbicidal effect index on crop) (soybean (G1)): 1
- Ec (herbicidal effect index) (barnyard grass (Ec) [5]): 5
- Herbicidal effect index, Eo (barnyard grass (Eo) [6]): 5

SMILES: CC(C)C(c1cncnc1C(F)(F)Cl)N(C)C(=O)Cc1ccccc1 (racemic) [Compound 1-15]
- herbicidal effects, Se (green foxtail) (green foxtail (Se)): 5
- herbicidal effects, Ec (barnyard grass) (barnyard grass (Ec) [3]): 5
- Herbicidal effect index, Mo (monochoria (Mo) [4]): 5
- Tr (herbicidal effect index on crop) (wheat (Tr)): 1
- Ze (herbicidal effect index on crop) (corn (Ze)): 1
- Ec (herbicidal effect index) (barnyard grass (Ec) [5]): 5
- Herbicidal effect index, Eo (barnyard grass (Eo) [6]): 5

SMILES: CC#Cc1ccc(CC(=O)N(C)C(c2cncnc2C(F)(F)F)C(C)C)cc1 (racemic) [Compound 1-84]
- Or (effect on crop plant rice, index) (rice (Or)): 0
- Eo (herbicidal effects, index) (barnyard grass (Eo) [1]): 5
- Mo (herbicidal effects, index) (monochoria (Mo) [2]): 5
- Herbicidal effect index, Mo (monochoria (Mo) [4]): 5
- Tr (herbicidal effect index on crop) (wheat (Tr)): 1
- Ze (herbicidal effect index on crop) (corn (Ze)): 0
- Gl (herbicidal effect index on crop) (soybean (G1)): 0
- Ec (herbicidal effect index) (barnyard grass (Ec) [5]): 4
- Herbicidal effect index, Eo (barnyard grass (Eo) [6]): 5

SMILES: CC(C)C(c1cncnc1C(F)(F)F)N(C(=O)Cc1ccccc1)C1CC1 (racemic) [Compound 1-80]
- herbicidal effects, Se (green foxtail) (green foxtail (Se)): 5
- herbicidal effects, Ec (barnyard grass) (barnyard grass (Ec) [3]): 5
- Herbicidal effect index, Mo (monochoria (Mo) [4]): 5
- Tr (herbicidal effect index on crop) (wheat (Tr)): 5
- Ze (herbicidal effect index on crop) (corn (Ze)): 1
- Gl (herbicidal effect index on crop) (soybean (G1)): 0
- Ec (herbicidal effect index) (barnyard grass (Ec) [5]): 5
- Herbicidal effect index, Eo (barnyard grass (Eo) [6]): 5

SMILES: CC(C)C(c1cncnc1C(F)(F)F)N(C)C(=O)Cc1ccc(C#N)cc1 (racemic) [Compound 1-75]
- herbicidal effects, Se (green foxtail) (green foxtail (Se)): 5
- herbicidal effects, Ec (barnyard grass) (barnyard grass (Ec) [3]): 5
- Herbicidal effect index, Mo (monochoria (Mo) [4]): 5
- Tr (herbicidal effect index on crop) (wheat (Tr)): 3
- Ze (herbicidal effect index on crop) (corn (Ze)): 2
- Gl (herbicidal effect index on crop) (soybean (G1)): 0
- Ec (herbicidal effect index) (barnyard grass (Ec) [5]): 4
- Herbicidal effect index, Eo (barnyard grass (Eo) [6]): 5
